From patent US4985409A, “Adenosine derivatives and pharmaceutical composition thereof” (Nippon Zoki Pharmaceutical Co., Ltd., priority 1989, dated 1991) come the findings set out here.

The test system of data set [1] is spontaneously hypertensive rats (SHR). Kind of data set: Antihypertensive activity (blood pressure in spontaneously hypertensive rats, oral). The data set is classed as in vivo. The settings on record: mean ±S.E. How it is done: The test compounds, which were dissolved or suspended in 0.5% C.M.C. aqueous solution, were orally administered to groups of 3 spontaneously hypertensive rats (SHR), 33 to 36 weeks old, which were fasted for 20 hours before drug administration. Blood pressure was measured before and 2 hours after the administration of the test drug.

Data set [2] in a line: Acute toxicity test (oral LD50, death rate for 14 days). As to conditions: mouse, in vivo, ddY-strain male mice. How it is done: The test compounds of the present invention, which were dissolved or suspended in 0.5% carboxymethylcellulose (C.M.C.) aqueous solution, were orally administered to groups of 2 to 5 ddY-strain male mice, and the LD50 values were calculated based on the death rate for 14 days thereafter.

Where [3] appears, read: Rattus norvegicus, 2 hours after oral 0.3 mg/kg, read-out: Blood pressure (Decrease %).
Where [4] appears, read: Rattus norvegicus, 2 hours after oral 3 mg/kg, read-out: Blood pressure (Decrease %).

As for `CO[C@@H]1[C@H](O)[C@@H](CO)O[C@H]1n1cnc2c(NC3CCCC3)ncnc21` [Compound 1, N^6-cyclopentyl-2'-O-methyladenosine], in data set [1] (2 hours after oral 0.3 mg/kg), the “Blood pressure 2 hrs” value is listed as 98 ± 8 mmHg. The inhibition in vivo at 0.3 mg/kg in data set [1] (setting [3]) was 56.5 ± 5.5%.

On to `CO[C@@H]1[C@H](O)[C@@H](CO)O[C@H]1n1cnc2c(NC3CCCCC3)ncnc21` [Compound 2, N^6-cyclohexyl-2'-O-methyladenosine], for which the “Blood pressure 2 hrs” value in data set [1] (2 hours after oral 0.3 mg/kg) was 129 ± 8 mmHg. Further, the inhibition in vivo at 0.3 mg/kg in data set [1] (setting [3]) turned out to be 37.5 ± 1.7%.

For the molecule `CO[C@@H]1[C@H](O)[C@@H](CO)O[C@H]1n1cnc2c(NCC(c3ccccc3)c3ccccc3)ncnc21` [Compound 5, N^6-(2,2-diphenylethyl)-2'-O-methyladenosine], the “Blood pressure 2 hrs” value in data set [1] (2 hours after oral 3 mg/kg) came out at 148 ± 19 mmHg. Also, the inhibition in vivo at 3 mg/kg in data set [1] (setting [4]) worked out at 30 ± 8.4%.

Molecule `CO[C@@H]1[C@H](O)[C@@H](CO)O[C@H]1n1cnc2c(NCc3cccc4ccccc34)ncnc21` [Compound 8, N^6-(1-naphthyl)methyl-2'-O-methyladenosine] had an LD50 at 336 h in data set [2] of 230 mg/kg. Moreover, the “Blood pressure 2 hrs” value in data set [1] (2 hours after oral 3 mg/kg) was 140 ± 7 mmHg. The inhibition in vivo at 3 mg/kg in data set [1] (setting [4]) is 36.2 ± 5.7%.

`CO[C@@H]1[C@H](O)[C@@H](CO)O[C@H]1n1cnc2c(NC3CCc4ccccc43)ncnc21` (stereo partly shown) [Compound 11, N^6-(2,3-dihydro-1H-indene-1-yl)-2'-O-methyladenosine] gave an LD50 at 336 h in data set [2] of 450 mg/kg. For the same molecule, the “Blood pressure 2 hrs” value in data set [1] (2 hours after oral 3 mg/kg) was determined as 133 ± 21 mmHg. Moreover, the inhibition in vivo at 3 mg/kg in data set [1] (setting [4]) worked out at 41.3 ± 7%.

Turning to `CO[C@@H]1[C@H](O)[C@@H](CO)O[C@H]1n1cnc2c(NC3Cc4ccccc4C3)ncnc21` [Compound 12, N^6-(2,3-dihydro-1H-indene-2-yl)-2'-O-methyladenosine], in data set [1] (2 hours after oral 10 mg/kg), the “Blood pressure 2 hrs” value is 164 ± 5 mmHg. Further, the inhibition in vivo at 10 mg/kg in data set [1] (Rattus norvegicus, 2 hours after oral 10 mg/kg, read-out: Blood pressure (Decrease %)) came to 22.7 ± 2.2%.

Consider `CO[C@@H]1[C@H](O)[C@@H](CO)O[C@H]1n1cnc2c(NC3CCCc4ccccc43)ncnc21` (stereo partly shown) [Compound 16, N^6-(1-tetrahydronaphthyl)-2'-O-methyladenosine], for which the LD50 at 336 h in data set [2] worked out at 230 mg/kg. Moreover, in data set [1] (2 hours after oral 3 mg/kg), the “Blood pressure 2 hrs” value was 109 ± 9 mmHg. Further, in data set [1] (setting [4]), the inhibition in vivo at 3 mg/kg is 47.2 ± 4.2%.

Take `CO[C@@H]1[C@H](O)[C@@H](CO)O[C@H]1n1cnc2c(NC3CCc4ccccc4C3)ncnc21` (stereo partly shown) [Compound 17, N^6-(2-tetrahydronaphthyl)-2'-O-methyladenosine]: the “Blood pressure 2 hrs” value in data set [1] (2 hours after oral 3 mg/kg) is recorded as 187 ± 7 mmHg. Also, the inhibition in vivo at 3 mg/kg in data set [1] (setting [4]) came to 14.5 ± 1.9%.

On to `CO[C@@H]1[C@H](O)[C@@H](CO)O[C@H]1n1cnc2c(NC3CCOc4ccccc43)ncnc21` (stereo partly shown) [Compound 24, N^6-(4-chromanyl)-2'-O-methyladenosine], for which the median lethal dose (LD50) at 336 h in data set [2] worked out at 250 mg/kg. Moreover, the “Blood pressure 2 hrs” value in data set [1] (2 hours after oral 1 mg/kg) came out at 98 ± 15 mmHg. Moreover, in data set [1] (Rattus norvegicus, 2 hours after oral 1 mg/kg, read-out: Blood pressure (Decrease %)), the inhibition in vivo at 1 mg/kg was determined as 55.4 ± 5.6%.

The LD50 is the dose at which mortality reaches 50%. A lower LD50 goes with greater toxicity.
